pIC50: −log10 of the molar value.
What was measured:
[1] = target: Gastrin/cholecystokinin type B receptor (Oryctolagus cuniculus); experiment: In vitro inhibition of gastrin-induced [Ca2+] cytosolic elevation in isolated rabbit parietal cells
[2] = target: Gastrin/cholecystokinin type B receptor (Cavia porcellus); experiment: Inhibition of binding of [3H]N-Me-N-Leu-CCK-8 to cholecystokinin type B receptor in guinea pig brain cortex

## CN(CC(=O)O)C(=O)CCC(NC(=O)c1cc(Cl)cc(Cl)c1)C(=O)N1CCC2(CCCC2)CC1 (configuration not stated) [{[5-(8-Aza-spiro[4.5]dec-8-yl)-4-(3,5-dichloro-benzoylamino)-5-oxo-pentanoyl]-methyl-amino}-acetic acid]
[1]
  pIC50: 5.55
[2]
  pIC50: 5.81
